In paper PMC12775434, “Ultra-large virtual screening unveils potent agonists of the neuromodulatory orphan receptor GPR139” (Nature Communications, 2025):
Where “and” joins values, the source holds several entries; their conditions need not be identical. Equal entries are not always repeated.

How the values were obtained:
Assay type in all cases: cell-based
[1] = biological target: T1, human muscarinic acetylcholine M1 receptor (M1R) (Homo sapiens, UniProt P11229); test: Ca2+ mobilization counter-screen in M1R-CHOk1 cells;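 also: 10 µM test compound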
T1 sequence (P11229 1-460): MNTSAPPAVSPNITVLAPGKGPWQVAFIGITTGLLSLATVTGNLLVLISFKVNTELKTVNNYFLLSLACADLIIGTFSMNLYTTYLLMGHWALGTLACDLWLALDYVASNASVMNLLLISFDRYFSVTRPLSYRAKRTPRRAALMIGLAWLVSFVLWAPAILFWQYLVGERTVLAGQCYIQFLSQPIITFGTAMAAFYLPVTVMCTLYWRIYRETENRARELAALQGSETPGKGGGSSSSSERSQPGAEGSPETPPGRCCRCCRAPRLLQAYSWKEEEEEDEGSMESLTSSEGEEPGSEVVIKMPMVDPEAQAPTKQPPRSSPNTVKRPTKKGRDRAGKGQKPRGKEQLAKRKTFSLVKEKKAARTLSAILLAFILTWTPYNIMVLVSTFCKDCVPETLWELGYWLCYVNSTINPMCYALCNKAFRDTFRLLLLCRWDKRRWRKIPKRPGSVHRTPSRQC
Procedure, shortened: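 Counter-screen used CHO-K1 cells stably carrying human M1R, Fluo-4 AM-loaded (2 µM, 1 h, 37 °C). Calcium signal measured at 485/525 nm after compound addition.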

GPR139 [2] = biological target: T2, GPR139 (Homo sapiens, UniProt Q6DWJ6); test: Ca2+ mobilization assay, agonist mode, stable GPR139-CHOk1 cell line; conditions: for change in potency with larger substituents on the thiophene ring: Ca2+ mobilization; for EC50 / Emax: Supplementary Table 2, mean ± SEM; for EC50: read-out: pEC50 Ca2+ (converted); for Emax: normalized to Lundbeck Cmp 1a, read-out: Emax (%) Ca2+
T2 sequence (Q6DWJ6 1-353): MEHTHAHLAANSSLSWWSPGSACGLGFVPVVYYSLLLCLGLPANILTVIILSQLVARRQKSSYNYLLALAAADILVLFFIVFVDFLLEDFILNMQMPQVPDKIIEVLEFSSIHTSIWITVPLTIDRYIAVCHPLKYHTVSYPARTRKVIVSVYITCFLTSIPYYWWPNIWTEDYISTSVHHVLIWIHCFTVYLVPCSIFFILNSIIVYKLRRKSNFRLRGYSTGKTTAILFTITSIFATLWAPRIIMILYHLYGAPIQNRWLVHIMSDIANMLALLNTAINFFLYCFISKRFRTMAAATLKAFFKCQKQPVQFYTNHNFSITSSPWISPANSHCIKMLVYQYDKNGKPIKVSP
Procedure, shortened: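 Agonist activity of compounds is assessed in stably transfected CHO-K1 cells using the calcium dye Fluo-4 at 37 °C in HEPES-buffered HBSS (pH 7.4). Efficacy is expressed relative to the reference agonist Lundbeck Cmp 1a, set as 100%.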

GPR139 [3] = biological target: T2, GPR139; test: Ca2+ mobilization assay, antagonist mode (EC80 800 nM Lundbeck Cmp 1a after 20 min preincubation), GPR139-CHOk1
Procedure, shortened: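 Antagonist mode: 800 nM (EC80) reference agonist Lundbeck Cmp 1a added following 20 min pre-incubation with 10 µM compound. GPR139-CHOk1 cells, Fluo-4 dye, probenecid-containing HEPES buffer pH 7.4; intracellular Ca2+ measured at 37 °C (ex 485, em 525 nm).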

[4] = individual replicates (Supplementary Figure 5)
[5] = Agonist mode, individual replicates (Supplementary Figure 4)
[6] = log [Compound] M = -4.5, individual replicate columns
[7] = log [Compound] M = -5.0, individual replicate columns
[8] = log [Compound] M = -5.5, individual replicate columns
[9] = log [Compound] M = -6.0, individual replicate columns
[10] = log [Compound] M = -6.5, individual replicate columns
[11] = log [Compound] M = -7.0, individual replicate columns
[12] = log [Compound] M = -7.5, individual replicate columns
[13] = log [Compound] M = -8.0, individual replicate columns
[14] = log [Compound] M = -8.5, individual replicate columns
[15] = log [Compound] M = -9.0, individual replicate columns
[16] = individual replicates (Supplementary Figure 4)

SMILES | Ca2+ signal (% of Carbachol) [1, 4] | Ca2+ signal (% of Cmp 1a) (GPR139 [2]; [5]) | change in potency with larger substituents on the thiophene ring (GPR139 [2]) | EC50 (GPR139 [2]) [nM] | Emax (GPR139 [2]) [%] | Ca2+ signal (% of Cmp 1a) (GPR139 [2]; [6]) | Ca2+ signal (% of Cmp 1a) (GPR139 [2]; [7]) | Ca2+ signal (% of Cmp 1a) (GPR139 [2]; [8]) | Ca2+ signal (% of Cmp 1a) (GPR139 [2]; [9]) | Ca2+ signal (% of Cmp 1a) (GPR139 [2]; [10]) | Ca2+ signal (% of Cmp 1a) (GPR139 [2]; [11]) | Ca2+ signal (% of Cmp 1a) (GPR139 [2]; [12]) | Ca2+ signal (% of Cmp 1a) (GPR139 [2]; [13]) | Ca2+ signal (% of Cmp 1a) (GPR139 [2]; [14]) | Ca2+ signal (% of Cmp 1a) (GPR139 [2]; [15]) | Ca2+ signal (% of Cmp 1a) (GPR139 [3]; [16]) | other results
Cc1cnc2ccc(-c3nc(CC(=O)NC(C)c4ccccc4)no3)cn12 (centres unmarked) [Compound 1.40, CC(NC(=O)CC1=NOC(=N1)C=2C=CC3=NC=C(C)N3C2)C=4C=CC=CC4] | -14 % of Carbachol and -5 % of Carbachol and -4.33 % of Carbachol | 51 % of Cmp 1a and 56 % of Cmp 1a | three-fold reduction to a complete loss of activity | 3160 | 86 ± 7 | 93 % of Cmp 1a and 71 % of Cmp 1a and 89 % of Cmp 1a | 80 % of Cmp 1a and 64 % of Cmp 1a and 78 % of Cmp 1a | 57 % of Cmp 1a and 35 % of Cmp 1a and 53 % of Cmp 1a | 32 % of Cmp 1a and 13 % of Cmp 1a and 17 % of Cmp 1a | 17 % of Cmp 1a and -10 % of Cmp 1a and -16 % of Cmp 1a | 21 % of Cmp 1a and -2.33 % of Cmp 1a and -20 % of Cmp 1a | 0 % of Cmp 1a and 1.33 % of Cmp 1a and 22 % of Cmp 1a | 11 % of Cmp 1a and 0.667 % of Cmp 1a and 28 % of Cmp 1a | 16 % of Cmp 1a and -6.33 % of Cmp 1a and 31 % of Cmp 1a | 20 % of Cmp 1a and -7 % of Cmp 1a and 0.667 % of Cmp 1a | 23 % of Cmp 1a and 31 % of Cmp 1a and 12 % of Cmp 1a | 
CC(C)c1ccc(-c2nc(CC(=O)NC(C)c3ccccc3)no2)s1 (centres unmarked) [Compound 1.41, CC(C)C1=CC=C(S1)C2=NC(CC(=O)NC(C)C=3C=CC=CC3)=NO2] | -18 % of Carbachol and 8 % of Carbachol and -8 % of Carbachol | 66 % of Cmp 1a and 76 % of Cmp 1a and 60 % of Cmp 1a | three-fold reduction to a complete loss of activity | 1580 | 67 ± 4 | 69 % of Cmp 1a and 62 % of Cmp 1a and 57 % of Cmp 1a | 70 % of Cmp 1a and 71 % of Cmp 1a and 40 % of Cmp 1a | 56 % of Cmp 1a and 47 % of Cmp 1a and 25 % of Cmp 1a | 34 % of Cmp 1a and 27 % of Cmp 1a and 22 % of Cmp 1a | 15 % of Cmp 1a and 0.333 % of Cmp 1a and 5.33 % of Cmp 1a | 13 % of Cmp 1a and -9 % of Cmp 1a and 4.33 % of Cmp 1a | -1.33 % of Cmp 1a and -6.33 % of Cmp 1a and 3 % of Cmp 1a | -4.33 % of Cmp 1a and 0 % of Cmp 1a (2×) | 0 % of Cmp 1a and -2.67 % of Cmp 1a and 0.333 % of Cmp 1a | -1.67 % of Cmp 1a and -4.33 % of Cmp 1a and -2.33 % of Cmp 1a | 24 % of Cmp 1a and 11 % of Cmp 1a and -0.667 % of Cmp 1a | 
CCc1nc(-c2nc(CC(=O)NC(C)c3ccccc3)no2)co1 (centres unmarked) [Compound 1.42, CCC1=NC(=CO1)C2=NC(CC(=O)NC(C)C=3C=CC=CC3)=NO2] | -1.26 % of Carbachol and 0.364 % of Carbachol and 1.26 % of Carbachol | 76 % of Cmp 1a and 54 % of Cmp 1a and 64 % of Cmp 1a |  | 2000 | 78 ± 3 | 65 % of Cmp 1a and 81 % of Cmp 1a and 83 % of Cmp 1a | 44 % of Cmp 1a and 85 % of Cmp 1a and 76 % of Cmp 1a | 31 % of Cmp 1a and 75 % of Cmp 1a and 78 % of Cmp 1a | 9 % of Cmp 1a and 29 % of Cmp 1a and 21 % of Cmp 1a | -11 % of Cmp 1a and 1.56 % of Cmp 1a and 5.36 % of Cmp 1a | -2.41 % of Cmp 1a and 0.181 % of Cmp 1a and -5 % of Cmp 1a | -4.35 % of Cmp 1a and 3.27 % of Cmp 1a and -5.39 % of Cmp 1a | 5 % of Cmp 1a and -2.46 % of Cmp 1a and -2 % of Cmp 1a | -3 % of Cmp 1a and -4 % of Cmp 1a and 0.00955 % of Cmp 1a | -3.77 % of Cmp 1a and 10 % of Cmp 1a and 3.66 % of Cmp 1a | 24 % of Cmp 1a and -10 % of Cmp 1a and 49 % of Cmp 1a | 
Cc1cc(-c2nc(CC(=O)NC(C)c3ccccc3)no2)ns1 (centres unmarked) [Compound 1.43, CC(NC(=O)CC1=NOC(=N1)C=2C=C(C)SN2)C=3C=CC=CC3] | -0.351 % of Carbachol and 1.19 % of Carbachol and 1.15 % of Carbachol | 63 % of Cmp 1a and 81 % of Cmp 1a and 86 % of Cmp 1a |  | 1580 | 102 ± 7 | 114 % of Cmp 1a and 107 % of Cmp 1a and 84 % of Cmp 1a | 92 % of Cmp 1a and 86 % of Cmp 1a and 81 % of Cmp 1a | 82 % of Cmp 1a and 55 % of Cmp 1a and 100 % of Cmp 1a | 35 % of Cmp 1a and 11 % of Cmp 1a and 48 % of Cmp 1a | 14 % of Cmp 1a and -6.32 % of Cmp 1a and 5 % of Cmp 1a | -6 % of Cmp 1a and 6 % of Cmp 1a and -11 % of Cmp 1a | 0.152 % of Cmp 1a and 7 % of Cmp 1a and -5.32 % of Cmp 1a | 0.817 % of Cmp 1a and 5 % of Cmp 1a and 7 % of Cmp 1a | -1.79 % of Cmp 1a and -1.64 % of Cmp 1a and 0.136 % of Cmp 1a | 1.86 % of Cmp 1a and -3 % of Cmp 1a and -0.513 % of Cmp 1a | 4.33 % of Cmp 1a and 17 % of Cmp 1a and 5 % of Cmp 1a | fold decrease in potency relative to parent compound 1 (GPR139 [2]; Ca2+ mobilization EC50): 3- to 25 fold
COCC(NC(=O)NC(C)c1ccc(F)cc1F)c1ccccc1 (centres unmarked) [Compound 6, COCC(NC(=O)NC(C)C=1C=CC(F)=CC1F)C=2C=CC=CC2] |  |  |  |  |  |  |  |  |  |  |  |  |  |  |  |  | Ca2+ signal (% of Carbachol) ([1]; individual replicates (Supplementary Figure 2)): -19 % of Carbachol and -0.753 % of Carbachol; Ca2+ signal (% of Cmp 1a) (GPR139 [2]; 0.1 µM, individual replicates (Supplementary Figure 3)): -5.9 % of Cmp 1a and -10.9 % of Cmp 1a; Ca2+ signal (% of Cmp 1a) (GPR139 [2]; 1 µM, individual replicates (Supplementary Figure 3)): 3.9 % of Cmp 1a and 9.9 % of Cmp 1a; Ca2+ signal (% of Cmp 1a) (GPR139 [2]; 10 µM, individual replicates (Supplementary Figure 3)): 34.7 % of Cmp 1a and 32.7 % of Cmp 1a; activation of GPR139 at three concentrations (GPR139 [2]; 0.1, 1 and 10 µM, activity too low to reliably determine EC50): concentration-dependent activation of GPR139; Ca2+ signal (% of Cmp 1a) (GPR139 [2]; Agonist mode, individual replicates (Supplementary Figure 1)): 37 % of Cmp 1a and 42 % of Cmp 1a and 46 % of Cmp 1a; Ca2+ signal (% of Cmp 1a) (GPR139 [2]; primary screen, 10 µM compound, agonist mode, three columns = independent experiments): 37 % of Cmp 1a and 42 % of Cmp 1a and 46 % of Cmp 1a; Ca2+ signal (% of Cmp 1a) (GPR139 [3]; individual replicates (Supplementary Figure 1)): 39.4931 % of Cmp 1a and 54.2036 % of Cmp 1a and 45.3276 % of Cmp 1a
